Results published in ChEMBL document CHEMBL3867479, “Multiple biological activities and molecular docking studies of newly synthesized 3-(pyridin-4-yl)-1H-pyrazole-5-carboxamide chalcone hybrids” (Bioorg Med Chem Lett, 2016).
Activity calls are given as the source filed them. No cut-off for these calls is given here.

Key:
Erythrocyte = assay: Antiinflammatory activity in human RBC at 10 to 500 uM by membrane stabilization method; format: functional, cell-based
[1] = Antioxidant activity assessed as H2O2 free radical scavenging activity at 100 uM by UV-Vis spectrophotometric analysis; format: functional
Pseudomonas aeruginosa = assay: Antibacterial activity against Pseudomonas aeruginosa ATCC 10145 after 24 hrs by well diffusion method; format: functional
Streptococcus pyogenes = assay: Antibacterial activity against Streptococcus pyogenes ATCC 12358 after 24 hrs by well diffusion method; format: functional
Staphylococcus aureus = assay: Antibacterial activity against Staphylococcus aureus ATCC 11632 after 24 hrs by well diffusion method; format: functional
[2] = Antioxidant activity assessed as DPPH free radical scavenging activity at 100 uM by UV-Vis spectrophotometric analysis; format: functional
Klebsiella pneumoniae = assay: Antibacterial activity against Klebsiella pneumoniae ATCC 10031 after 24 hrs by well diffusion method; format: functional
[3] = Antioxidant activity assessed as anti-inflammatory activity by measuring decrease in bovine serum albumin denaturation at 10 to 500 uM; format: functional

Structure (SMILES)	Activity (Erythrocyte)	IC50 [1] [µM]	inhibition zone (IZ) (Pseudomonas aeruginosa) [mm]	inhibition zone (IZ) (Streptococcus pyogenes) [mm]	inhibition zone (IZ) (Staphylococcus aureus) [mm]	IC50 [2] [µM]	inhibition zone (IZ) (Klebsiella pneumoniae) [mm]	Activity [3]
O=C(/C=C/c1ccccc1)c1cccc(NC(=O)c2cc(-c3ccncc3)n[nH]2)c1	Active	71.5	9.5	13.2	7.5	67.1	–	–
COc1ccccc1/C=C/C(=O)c1cccc(NC(=O)c2cc(-c3ccncc3)n[nH]2)c1	Active	56.7	8.8	9.7	6.8	41.7	–	–
O=C(/C=C/c1ccc(F)cc1)c1cccc(NC(=O)c2cc(-c3ccncc3)n[nH]2)c1	Active	58.7	12.1	–	5.4	56	–	–
O=C(/C=C/c1ccco1)c1cccc(NC(=O)c2cc(-c3ccncc3)n[nH]2)c1	Active	72.3	5.7	13.2	10.7	41.8	5.8	Active
NC(=O)c1cc(-c2ccncc2)n[nH]1	Active	89.1	4	6	5	82.1	5	–
O=C(/C=C/c1ccccc1)c1ccccc1 [CHALCONE]	Active	98.1	7	6.5	6	70.9	5	–
CN(C)c1ccc(/C=C/C(=O)c2cccc(NC(=O)c3cc(-c4ccncc4)n[nH]3)c2)cc1	Active	60.9	10.5	12.4	7.8	41.9	5.9	Active
COc1cc(/C=C/C(=O)c2cccc(NC(=O)c3cc(-c4ccncc4)n[nH]3)c2)cc(OC)c1OC	Active	52.9	5.2	11.6	12.6	54.5	–	Active
O=C(/C=C/c1ccccc1Cl)c1cccc(NC(=O)c2cc(-c3ccncc3)n[nH]2)c1	Active	79.8	8.3	7.4	–	27.7	–	Active
O=C(/C=C/c1cccs1)c1cccc(NC(=O)c2cc(-c3ccncc3)n[nH]2)c1	Active	70	8.6	13.5	15.4	27.6	7.5	Active
COc1ccc(/C=C/C(=O)c2cccc(NC(=O)c3cc(-c4ccncc4)n[nH]3)c2)cc1	Active	54.6	12.5	10.6	4.5	38.4	5.2	–
O=C(/C=C/c1ccc(Cl)cc1Cl)c1cccc(NC(=O)c2cc(-c3ccncc3)n[nH]2)c1	Active	80.9	12.2	15.5	17.5	35	6.8	Active
CC(C)c1ccc(/C=C/C(=O)c2cccc(NC(=O)c3cc(-c4ccncc4)n[nH]3)c2)cc1	Active	60.2	9.6	9.4	6.8	52.3	–	Active
O=C(/C=C/c1ccc([N+](=O)[O-])cc1)c1cccc(NC(=O)c2cc(-c3ccncc3)n[nH]2)c1	Active	64.6	10.4	19.3	20.2	52.8	–	–
Cc1ccc(/C=C/C(=O)c2cccc(NC(=O)c3cc(-c4ccncc4)n[nH]3)c2)cc1	Active	64.6	7.8	7.9	5.9	69.4	–	–
O=C(/C=C/c1cccc2ccccc12)c1cccc(NC(=O)c2cc(-c3ccncc3)n[nH]2)c1	Active	72.1	6.3	15.4	12.3	64.5	–	Active
O=C(/C=C/c1ccc(Cl)cc1)c1cccc(NC(=O)c2cc(-c3ccncc3)n[nH]2)c1	Active	78.9	10.2	15.3	12.3	63.9	–	Active
